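Here, GI50 denotes the concentration required for 50% inhibition of growth. TGI: total growth inhibition.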
Tests used:
Assay in all cases: growth of human tumour cells (NCI), 384-well format
[1] = system: MDA-MB-435 melanoma
[2] = system: SNB-19 CNS
[3] = system: MOLT-4 leukemia
[4] = system: CCRF-CEM leukemia
[5] = system: SK-MEL-2 melanoma
[6] = system: HT29 colon
[7] = system: SK-MEL-28 melanoma
[8] = system: NCI-H522 lung
[9] = system: EKVX NSCLC
[10] = system: HCC-2998 colon
[11] = system: U251 glioblastoma
[12] = system: UACC-62 melanoma
[13] = system: TK-10 renal
[14] = system: CAKI-1 renal
[15] = system: NCI-H460 NSCLC
[16] = system: SK-OV-3 ovarian
[17] = system: MCF7 breast
[18] = system: BT-549 breast
[19] = system: NCI-H322M lung
[20] = system: LOX IMVI melanoma
[21] = system: SK-MEL-5 melanoma
[22] = system: MDA-MB-468 breast
[23] = system: M14 melanoma
[24] = system: NCI/ADR-RES ovarian
[25] = system: HS 578T breast
[26] = system: MALME-3M melanoma
[27] = system: COLO 205 colon
[28] = system: HL-60(TB) leukemia
[29] = system: RXF 393 renal
[30] = system: 786-0 renal
[31] = system: OVCAR-8 ovarian
[32] = system: HCT-116 colon
[33] = system: SN12C renal
[34] = system: PC-3 prostate
[35] = system: RPMI-8226 leukemia
[36] = system: A498 renal
[37] = system: OVCAR-3 ovarian
[38] = system: SW-620 colon
[39] = system: OVCAR-4 ovarian
[40] = system: SF-295 CNS
[41] = system: K-562 leukemia
[42] = system: UACC-257 melanoma
[43] = system: NCI-H226 lung
[44] = system: NCI-H23 lung
[45] = system: SF-539 CNS
[46] = system: A549 NSCLC
[47] = system: HCT-15 colon
[48] = system: KM12 colon
[49] = system: DU-145 prostate
[50] = system: HOP-62 NSCLC
[51] = system: SNB-75 CNS
[52] = system: IGROV1 ovarian
[53] = system: SF-268 CNS
[54] = system: HOP-92 NSCLC
[55] = system: ACHN renal

## Cc1ccc(S(=O)(=O)Oc2ccc3sc4c(CO)ccc(NCCN(C)C)c4c(=O)c3c2)cc1
[1]
  GI50: 2130 nM
  TGI: 3570 nM
[2]
  GI50: 2210 nM
  TGI: 3690 nM
[3]
  GI50: 1790 nM
  TGI: 3180 nM
[4]
  GI50: 1620 nM
  TGI: 2990 nM
[5]
  GI50: 2070 nM
  TGI: 3510 nM
[6]
  GI50: 1800 nM
  TGI: 3210 nM
[7]
  GI50: 2160 nM
  TGI: 3620 nM
[8]
  GI50: 2200 nM
  TGI: 3660 nM
[9]
  GI50: 1880 nM
  TGI: 3300 nM
[10]
  GI50: 1940 nM
  TGI: 3360 nM
[11]
  GI50: 2220 nM
  TGI: 3700 nM
[12]
  GI50: 2100 nM
  TGI: 3560 nM
[13]
  GI50: 1990 nM
  TGI: 3410 nM
[14]
  GI50: 1900 nM
  TGI: 3340 nM
[15]
  GI50: 1900 nM
  TGI: 3340 nM
[16]
  GI50: 1940 nM
  TGI: 3380 nM
[17]
  GI50: 1720 nM
  TGI: 3110 nM
[18]
  GI50: 1890 nM
  TGI: 3310 nM
[19]
  GI50: 2120 nM
  TGI: 3570 nM
[20]
  GI50: 1710 nM
  TGI: 3110 nM
[21]
  GI50: 1640 nM
  TGI: 3020 nM
[22]
  GI50: 3820 nM
  TGI: 5270 nM
[23]
  GI50: 2160 nM
  TGI: 3610 nM
[24]
  GI50: 2060 nM
  TGI: 3500 nM
[25]
  GI50: 2010 nM
  TGI: 3450 nM
[26]
  GI50: 2150 nM
  TGI: 3610 nM
[27]
  GI50: 2140 nM
  TGI: 3600 nM
[28]
  GI50: 1590 nM
  TGI: 2950 nM
[29]
  GI50: 1990 nM
  TGI: 3420 nM
[30]
  GI50: 1850 nM
  TGI: 3270 nM
[31]
  GI50: 1630 nM
  TGI: 3020 nM
[32]
  GI50: 2140 nM
  TGI: 3620 nM
[33]
  GI50: 1640 nM
  TGI: 3010 nM
[34]
  GI50: 2010 nM
  TGI: 3450 nM
[35]
  GI50: 1920 nM
  TGI: 3330 nM
[36]
  GI50: 1980 nM
  TGI: 3410 nM
[37]
  GI50: 1970 nM
  TGI: 3390 nM
[38]
  GI50: 1840 nM
  TGI: 3270 nM
[39]
  GI50: 2240 nM
  TGI: 3700 nM
[40]
  GI50: 1960 nM
  TGI: 3380 nM
[41]
  GI50: 1910 nM
  TGI: 3330 nM
[42]
  GI50: 2840 nM
  TGI: 4320 nM
[43]
  GI50: 1470 nM
  TGI: 2800 nM
[44]
  GI50: 2030 nM
  TGI: 3460 nM
[45]
  GI50: 2080 nM
  TGI: 3540 nM
[46]
  GI50: 1840 nM
  TGI: 3280 nM
[47]
  GI50: 2070 nM
  TGI: 3530 nM
[48]
  GI50: 1870 nM
  TGI: 3300 nM
[49]
  GI50: 2090 nM
  TGI: 3540 nM
[50]
  GI50: 2080 nM
  TGI: 3520 nM
[51]
  GI50: 2350 nM
  TGI: 3820 nM
[52]
  GI50: 1790 nM
  TGI: 3180 nM
[53]
  GI50: 2200 nM
  TGI: 3660 nM
[54]
  GI50: 2120 nM
  TGI: 3570 nM
[55]
  GI50: 1890 nM
  TGI: 3330 nM

Source: PubChem BioAssay (NCI)
